Laboratory results as given in ChEMBL document CHEMBL4052692, “Synthesis and biological activity of peptide proline-boronic acids as proteasome inhibitors” (Bioorg Med Chem, 2017).

What was measured:
MGC-803 = experiment: Cytotoxicity against human MGC803 cells after 72 hrs by MTT assay; format: functional, cell-based; conditions: MGC-803, 72 h
HL-60 = experiment: Cytotoxicity against human HL60 cells after 72 hrs by MTT assay; format: functional, cell-based; conditions: HL-60, 72 h
HCT-116 = experiment: Cytotoxicity against human HCT116 cells after 72 hrs by MTT assay; format: functional, cell-based; conditions: HCT-116, 72 h
[1] = Cytotoxicity against human 95-D cells after 72 hrs by MTT assay; format: functional, cell-based
MDA-MB-231 = experiment: Cytotoxicity against human MDA-MB-231 cells after 72 hrs by MTT assay; format: functional, cell-based; conditions: MDA-MB-231, 72 h
A549 = experiment: Cytotoxicity against human A549 cells after 72 hrs by MTT assay; format: functional, cell-based; conditions: A549, 72 h
[2] = Selectivity ratio of IC50 for PGPH-like activity of 20S proteasome in human HL60 cells to IC50 for chymotrypsin-like activity of 20S proteasome in human HL60 cells
[3] = Selectivity ratio of IC50 for trypsin-like activity of 20S proteasome in human HL60 cells to IC50 for chymotrypsin-like activity of 20S proteasome in human HL60 cells
[4] = target: T1, Proteasome Macropain subunit MB1 (Homo sapiens, UniProt P28074); experiment: Inhibition of chymotrypsin-like activity of 20S proteasome in human HL60 cells using Suc-LLVYaminoluciferin as substrate pretreated for 2 hrs followed by substrate addition by […]; format: cell-based
T1 sequence (P28074 whole entry): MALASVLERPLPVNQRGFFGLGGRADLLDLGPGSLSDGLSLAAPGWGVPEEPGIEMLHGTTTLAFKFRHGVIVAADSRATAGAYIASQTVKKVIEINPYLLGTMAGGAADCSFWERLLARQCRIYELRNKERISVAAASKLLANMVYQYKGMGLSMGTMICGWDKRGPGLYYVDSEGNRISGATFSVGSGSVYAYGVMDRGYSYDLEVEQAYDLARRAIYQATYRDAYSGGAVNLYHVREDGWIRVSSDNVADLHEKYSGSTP

With O=C(N[C@@H](Cc1ccccc1)C(=O)N[C@@H](Cc1ccccc1)C(=O)N1CCC[C@H]1B(O)O)c1cnccn1 the IC50 (MGC-803) was 0.478 µM.
In the case of CC(C)C[C@H](NC(=O)[C@H](Cc1ccccc1)NC(=O)c1cnccn1)B(O)O [BORTEZOMIB], the IC50 (HL-60) is reported as 0.008 µM, the IC50 (HCT-116) is reported as 0.001 µM and the IC50 [1] is reported as 0.038 µM. The IC50 (MGC-803) was 0.008 to 0.0133 µM.
Molecule CC(C)C[C@H](NC(=O)c1cnccn1)C(=O)N[C@@H](Cc1ccccc1)C(=O)N1CCC[C@H]1B(O)O has an IC50 (MGC-803) of 0.0272 µM.
CC(C)C[C@H](NC(=O)N(C)Cc1ccccc1)C(=O)N[C@@H](Cc1ccc2ccccc2c1)C(=O)N1CCC[C@H]1B(O)O gave an IC50 (MGC-803) of 1.65 µM.
For O=C(N[C@@H](Cc1ccccc1)C(=O)N1CCC[C@H]1B(O)O)c1cnccn1, the IC50 (MGC-803) was > 10 µM.
Molecule CN(Cc1ccccc1)C(=O)N[C@@H](Cc1ccc2ccccc2c1)C(=O)N1CCC[C@H]1B(O)O has an IC50 (MGC-803) of 7.48 µM.
In the case of CC(C)C[C@H](NC(=O)[C@H](Cc1ccccc1)NC(=O)N1CCc2ccccc2C1)C(=O)N1CCC[C@H]1B(O)O, the IC50 (MGC-803) is reported as > 10 µM.
With O=C(N[C@@H](Cc1ccccc1)C(=O)N[C@@H](Cc1ccc2ccccc2c1)C(=O)N1CCC[C@H]1B(O)O)OCc1ccccc1 the IC50 (MGC-803) was 0.149 µM.
In the case of O=C(N[C@@H](Cc1ccc2ccccc2c1)C(=O)N1CCC[C@H]1B(O)O)OCc1ccccc1, the IC50 (MGC-803) is reported as > 10 µM.
In the case of O=C(N[C@@H](Cc1ccccc1)C(=O)N1CCC[C@H]1B(O)O)N1CCc2ccccc2C1, the IC50 (MGC-803) is reported as > 10 µM.
With CC(C)C[C@H](NC(=O)OCc1ccccc1)C(=O)N[C@@H](Cc1ccc2ccccc2c1)C(=O)N1CCC[C@H]1B(O)O the IC50 (MDA-MB-231) was 0.007 µM, the IC50 (HL-60) was < 0.001 µM and the IC50 (HCT-116) was 0.069 µM. The IC50 (A549) was 5.99 µM, the “Ratio IC50” value [2] was 69.4 and the “Ratio IC50” value [3] was 92.2. The IC50 [1] was 0.012 µM, the IC50 [4] was 0.018 µM and the IC50 (MGC-803) was 0.00976 to 0.01 µM.
CC(C)C[C@H](NC(=O)OCc1ccccc1)C(=O)N[C@@H](CC(C)C)C(=O)N1CCC[C@H]1B(O)O gave an IC50 (MGC-803) of 0.0109 µM.
For O=C(N[C@@H](Cc1ccc(O)cc1)C(=O)N1CCC[C@H]1B(O)O)[C@H](Cc1ccccc1)NC(=O)N1CCc2ccccc2C1, the IC50 (MGC-803) was 7.64 µM.
In the case of CC(C)C[C@H](NC(=O)c1cnccn1)C(=O)N[C@@H](CC(C)C)C(=O)N1CCC[C@H]1B(O)O, the IC50 (MGC-803) is reported as 4.43 µM.
In the case of CC(C)C[C@H](NC(=O)c1cnccn1)C(=O)N[C@@H](Cc1ccc2ccccc2c1)C(=O)N1CCC[C@H]1B(O)O, the IC50 (MGC-803) is reported as 0.0296 µM.
With O=C(N[C@@H](Cc1ccccc1)C(=O)N1CCC[C@H]1B(O)O)N1CCOCC1 the IC50 (MGC-803) was > 10 µM.
O=C(N[C@@H](Cc1ccccc1)C(=O)N1CCC[C@H]1B(O)O)[C@H](Cc1ccccc1)NC(=O)N1CCc2ccccc2C1 gave an IC50 (MGC-803) of 4.17 µM.
O=C(N[C@@H](Cc1ccc2ccccc2c1)C(=O)N1CCC[C@H]1B(O)O)[C@H](Cc1ccccc1)NC(=O)N1CCc2ccccc2C1 gave an IC50 (MGC-803) of 2.42 µM.
Work on O=C(N[C@@H](Cc1ccccc1)C(=O)N[C@@H](Cc1ccc2ccccc2c1)C(=O)N1CCC[C@H]1B(O)O)c1cnccn1 yielded an IC50 (MGC-803) of 0.11 µM.
Work on CC(C)C[C@H](NC(=O)N1CCc2ccccc2C1)C(=O)N[C@@H](Cc1ccc2ccccc2c1)C(=O)N1CCC[C@H]1B(O)O yielded an IC50 (MGC-803) of 1.43 µM.
With O=C(N[C@@H](Cc1ccc2ccccc2c1)C(=O)N1CCC[C@H]1B(O)O)N1CCc2ccccc2C1 the IC50 (MGC-803) was 5.36 µM.
